Measured values: the METLIN SMRT retention time set (Domingo-Almenara et al. 2019)

Assay: gradient 5% acetonitrile 3 min, to 50% in 2 min, to 85% in 15 min, held 3 min, 100 µL/min
Settings: column: Zorbax Extend-C18 2.1 x 50 mm; eluents: water / acetonitrile, 0.1% formic acid
Procedure, shortened: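 Standards, all pure, were combined into mixtures of ~100 molecules and run at 100 μL/min on a Zorbax Extend-C18 column (2.1 × 50 mm, 1.8 μm) with water and acetonitrile, each containing 0.1% formic acid. A coupled quadrupole time-of-flight mass spectrometer operated in positive and negative ionization mode. Retention time values come from computationally picked adduct peaks, each inspected manually.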

Structure (SMILES)	RP-LC retention time
CCOCCCNC(=O)Cn1cccc1-c1nc(-c2ccc(Cl)cc2)cs1	1060 s
CN(C)c1cccc(-c2nc(-c3cn(-c4cccc(F)c4)nn3)no2)c1	1110 s
CCN1c2ccc(C(=O)Nc3ccc4c(c3)OCCO4)cc2-c2ccccc2S1(=O)=O	990 s
CC(C)CCNC(=O)N1CCC(OC2CCN(Cc3ccccc3)CC2)CC1	641 s
Cc1c(C(=O)N2CCCCC2)c(S(=O)(=O)N2CCN(c3ccccn3)CC2)c(C)n1C	629 s
Cc1ccc(NC(=O)N2CCc3nc(-c4ccccc4)ncc3C2)c(Cl)c1	1080 s
O=C(Cn1c(=O)c2cccn2c2ccc(F)cc21)N1CCCCC1	795 s
CC(=O)c1cccc(NC(=O)c2ccc(Cl)s2)c1	832 s
CCOC(=O)c1c(C)c(CCC(=O)N2CCN(C(=O)c3ccco3)CC2)n(CC)c1C	778 s
Cc1cc(C(=O)Nc2c3c(nn2C)CCC3)no1	611 s
CCC(NC(=O)C1CCCN(c2cnc3nccnc3c2)C1)c1cccs1 (stereo not given)	728 s
C=Cc1ccc(Cn2cccc(S(=O)(=O)N3CCCC3)c2=O)cc1	886 s
CCCN1C(=O)COc2ccc(-c3noc(COc4ccc(Cl)cc4)n3)cc21	1190 s
O=C(NCCc1ccccc1)C1=C2CCCN2c2ccc(F)cc2S1(=O)=O	909 s
Cc1ccc(Cn2c(=O)n(CCNC(=O)c3cnccn3)c3ncccc32)cc1	737 s
CCc1cc(=O)n(CC(=O)NCCc2ccc(Cl)cc2)c(N2CCOCC2)n1	803 s
COc1cc(OC)cc(-c2noc(Cn3c(=O)n(CC(C)C)c(=O)c4ccccc43)n2)c1	1160 s
CCn1ccc(C(=O)Nc2ccc(OCc3nnc(-c4ccccc4)o3)cc2)n1	868 s
COc1ccc(CCC(=O)N2CCN(S(=O)(=O)c3cc4c5c(c3)CCC(=O)N5CCC4)CC2)cc1	768 s
CCOC(=O)c1[nH]c(C)c(C(=O)C(C)N(Cc2ccc(F)cc2)C(=O)C2CC2)c1C (stereo not given)	917 s
CCn1nccc1-c1cccc(-c2noc(COc3ccc(Cl)cc3)n2)c1	1200 s
CCCc1nnc(NC(=O)C2CCN(C(=O)c3cccc(F)c3)CC2)s1	727 s
CCC(=O)Nc1ccc(OCc2cc(C(=O)NC3CCCCC3)no2)cc1	840 s

Structure (SMILES)	RP-LC retention time
CCn1cc(-c2nc(-c3ccccc3OC)no2)c(=O)c2cc(F)ccc21	820 s
COc1cc(OC)c(NC(=O)N2CCCC(C)(C(=O)NCc3ccc(C)cc3)C2)cc1Cl (stereo not given)	971 s
COCc1noc(CC2CCOC3(CCN(C(=O)NC4CCCCC4)CC3)C2)n1 (stereo not given)	758 s
CC(=O)Nc1cccc(NC(=O)C2CC(=O)N(c3n[nH]c4cccc(F)c34)C2)c1 (stereo not given)	644 s
CN1CCN(C(c2ccncc2)c2c(NC(=O)c3ccco3)sc3c2CCCC3)CC1 (stereo not given)	636 s
CC1CCN(S(=O)(=O)c2ccc3c(c2)CCCC(=O)N3CC(=O)N2CCCC2)CC1	819 s
O=C(c1ccc(OCC2CCN(C(=O)c3ccco3)CC2)cc1)N1CCOCC1	718 s
O=C(Nc1cc(-c2cccs2)no1)c1ccc(F)cc1	948 s
Cc1ccc(C)c(NC(=O)C2CCN(C(=O)c3ncn4c3COC(c3ccc(F)cc3)C4)CC2)c1 (stereo not given)	809 s
CC(C)n1c(=O)c(NCc2ccc(F)cc2Cl)nc2ccncc21	686 s
CCN1C(=O)COc2ccc(-c3noc(-c4cccc(C)c4)n3)cc21	1210 s
CCS(=O)(=O)N1CC(=O)N(c2ccc(C)cc2C)C(C)(C(=O)NC2CCCCCC2)C1 (stereo not given)	1000 s
Cc1nc(-c2noc(-c3ccccc3)n2)cn1CC(=O)NCc1cccs1	789 s
CCCN1CCN(C(=O)CN2C(=O)C3CCCCN3c3ccc(C(=O)N(C)C)cc32)CC1 (stereo not given)	602 s
Cc1nn2c(CNC(=O)c3ccc(F)c(F)c3)c(C)nc2s1	634 s
Cc1ccc(NC(=O)Cn2cnc3nc(N4CCCC(C(=O)NC5CC5)C4)sc3c2=O)c(C)c1 (stereo not given)	708 s
Cc1ccc(NS(=O)(=O)c2ccc(-c3nnc(C4CCC4)o3)o2)c(C)c1	977 s
CCOc1ccccc1-c1noc(Cn2c(=O)n(-c3ccccc3F)c(=O)c3sccc32)n1	982 s
CCCCN(CC)c1ccc(C(=O)O)cc1NC(=O)c1cccs1	1070 s
CCOc1ccccc1C(=O)NC(c1ccccc1)c1nnc(N2CCCC2)o1 (stereo not given)	896 s
CN(CC1CCOCC1)S(=O)(=O)c1cccc(F)c1	811 s
O=C(Nc1ccc2cn[nH]c2c1)c1ccc(F)cc1F	675 s
Cc1c(C(=O)Nc2c3c(nn2C(C)(C)C)CSC3)cccc1[N+](=O)[O-]	814 s

Structure (SMILES)	RP-LC retention time
COc1ccc(-c2cc3nn(CC(=O)NCc4cccc(OC)c4)c(=O)n3c(C)n2)cc1	875 s
Oc1ccc(-c2nc3ccc(Cl)cn3c2Nc2ccc(Cl)cc2)cc1	733 s
Cc1nnc(-c2cn(CC(=O)Nc3ccc(Br)cc3F)c3ccccc23)o1	890 s
O=C(NCCCN1CCCC1)c1cc(-c2cccnc2)nc2ccccc12	562 s
COCCN1C(=O)Cc2ccccc2C1C(=O)NCc1cc(F)ccc1F (stereo not given)	738 s
CCOc1ccc2c(n1)CCN(C(=O)Nc1cc(C)cc(C)c1)C2	912 s
CN1C(=O)Cc2cc(NC(=O)c3ccc(C(F)(F)F)cc3)ccc21	748 s
O=c1cc(N2CCOCC2)c(-c2ccccc2)n[nH]1	623 s
Cc1ccc(NS(=O)(=O)c2cc3n(c2)CCN(C)C3=O)c(F)c1	1070 s
CC(C)Oc1ccccc1CN1C[C@@H]2C(=O)N(C)C(=O)[C@@H]2C1	616 s
Cc1ccc(-c2nnc(CC(=O)NCCc3ccc(Cl)cc3)o2)cc1	906 s
O=C(Nc1ccc(-c2nnc3n2CCCC3)cc1)c1ccc(Cl)cc1	724 s
COc1ccc(-c2nc3cc(C)ccn3c2NC(=O)c2cc(Br)ccc2Cl)cc1	715 s
COc1ccc(C)cc1NC(=O)N1CCCC(Cn2c(C3CC3)nc3cccnc32)C1 (stereo not given)	722 s
CC1CCN(c2cc(-n3cnc(C(=O)N(C)Cc4ccccc4)c3)ncn2)CC1	1050 s
CCOC(=O)c1cc(S(=O)(=O)N2CCCC2C(=O)Nc2ccc(C)c(C)c2)cn1C (stereo not given)	1020 s
COCCN1CCC2(CCC1=O)CCN(C(=O)Nc1ccc(Br)cc1)CC2	740 s
Cc1ccccc1-c1nnc(CSc2nnc(NC(=O)c3ccccc3Br)s2)o1	943 s
Cc1nc2scc(CC(=O)O)n2c(=O)c1C	592 s
CCOc1ccc(-c2noc(Cn3nc4ccc(-c5ccc(C)cc5)nn4c3=O)n2)cc1OC	966 s
Cc1nnsc1C(=O)N1CCC(CNC(=O)C(C)(C)Oc2ccc(Cl)cc2)CC1	806 s
OC(CN1CCN(c2ccccn2)CC1)c1ccc(Cl)cc1 (stereo not given)	563 s
Cc1ccc(-n2nnc(-c3nc(C)c(C(=O)N4CCC(C(N)=O)CC4)s3)c2C)cc1C	742 s

Structure (SMILES)	RP-LC retention time
O=C(NCCC1=CCCCC1)C1CCCN(c2ccncc2)C1 (stereo not given)	645 s
CNC(=O)O[C@H]1COc2ccc(N3CCN(C4COC4)CC3)cc2[C@@H]1NC(=O)c1ccc(F)cc1	652 s
C[C@H](NC(=O)/C(C#N)=C/c1cccc(Br)n1)c1ccccc1	934 s
CN1CC(CNS(=O)(=O)c2ccccc2C(F)(F)F)C2(CCCCC2)C1 (stereo not given)	696 s
CCc1noc(NC(C)=O)c1-c1ccc(C)c(S(=O)(=O)Nc2cccc(C)c2)c1	826 s
CC(C)C(=O)Nc1ccc2c(c1)nc(CN1CCOCC1)n2C(C)C	607 s
C[C@@H](NCCc1ccc(O)cc1)[C@@H](O)c1ccc(O)cc1	362 s
CN1C(=O)[C@H]2CN(Cc3ccc(OC(F)(F)F)cc3)C[C@H]2C1=O	666 s
CCc1noc(-c2c(S(=O)(=O)NC3CCCC3)c(C)n(C)c2C)n1	833 s
Cc1cc(NC(=O)C2CCCN(c3ccc(-n4cccn4)nn3)C2)no1 (stereo not given)	654 s
CCOc1cccc(CNC(=O)C2CCc3nc(N4CCCCC4)ncc3C2)c1 (stereo not given)	777 s
Cc1ccc(C(=O)CC2(O)C(=O)Nc3ccc(Cl)cc32)cc1C (stereo not given)	772 s
Cc1cc(C(=O)NCC2CCN(C(=O)NC(C)(C)C)CC2)no1	649 s
CCNC(=O)c1cn(-c2ccc(-c3nc(C(C)(C)C)no3)cn2)cn1	858 s
COc1ccc(C2C(C(=O)NCC3CCCO3)CCC(=O)N2c2cc(OC)c(OC)c(OC)c2)cc1 (stereo not given)	631 s
Cc1nc2cc(N3CCC(C(=O)Nc4ccc5c(c4)OCCO5)CC3)cnc2nc1C	697 s
Cc1nnc(C2CCCN(C(=O)CCc3c(C)noc3C)C2)s1 (stereo not given)	606 s
Cc1cc(Cl)ccc1OCc1nc2c3ccccc3ncn2n1	1060 s
Cc1cnn(Cc2nc(-c3ccc(NC(=O)Cc4ccccc4C)cc3)oc2C)c1	954 s
CCOC(=O)c1nc(N2CCN(C(=O)c3ccco3)CC2)c2ccccc2n1	665 s
CCOC(=O)CCC(=O)N(Cc1ccsc1)CC(F)(F)F	839 s
